# What was measured:
# [1] = test system: active CD8+ T cells; assay: Absolute oxPPP flux by 14CO2 emission; type: cell-based, mouse; details: 10 uM
# Protocol: Glucose oxidation flux through oxPPP was determined from difference in the rate of ^14CO2 released from [1-^14C]-glucose and [6-^14C]-glucose, as previously described with some modification. RPMI 1640 media without sodium bicarbonate was supplemented with 0.74 g/L of NaHCO3, 2.5 mM HEPES pH 7.4, 10% dFBS, and 1% of either 1-^14C-glucose or 6-^14C-glucose. Three million primary mouse naïve (rested in IL-7) or active CD8+ T cells (in the presence of IL2 and 0.1% DMSO or 10 uM G6PDi-1) were incubated for 4 hours in a sealed 12.5 cm^2 flask. To facilitate the collection of ^14CO2, 100 µL of a 10 M KOH solution was introduced into the sealed flask using a center well for incubation flask (8823200000, DWK Life Sciences). The assay was stopped by injection of 1 mL 1 M HCL, and the KOH solution then transferred to scintillation vials containing 10 mL scintillation solution for counting. The signal was corrected for the percentage of radioactive tracer in the medium. OxPPP flux is calculated as follows: […]
# [2] = molecular target: T1, G6PD (Homo sapiens, UniProt P11413); assay: G6PD enzymatic activity by diaphorase-coupled assay
# Target sequence in this assay (P11413 28-515): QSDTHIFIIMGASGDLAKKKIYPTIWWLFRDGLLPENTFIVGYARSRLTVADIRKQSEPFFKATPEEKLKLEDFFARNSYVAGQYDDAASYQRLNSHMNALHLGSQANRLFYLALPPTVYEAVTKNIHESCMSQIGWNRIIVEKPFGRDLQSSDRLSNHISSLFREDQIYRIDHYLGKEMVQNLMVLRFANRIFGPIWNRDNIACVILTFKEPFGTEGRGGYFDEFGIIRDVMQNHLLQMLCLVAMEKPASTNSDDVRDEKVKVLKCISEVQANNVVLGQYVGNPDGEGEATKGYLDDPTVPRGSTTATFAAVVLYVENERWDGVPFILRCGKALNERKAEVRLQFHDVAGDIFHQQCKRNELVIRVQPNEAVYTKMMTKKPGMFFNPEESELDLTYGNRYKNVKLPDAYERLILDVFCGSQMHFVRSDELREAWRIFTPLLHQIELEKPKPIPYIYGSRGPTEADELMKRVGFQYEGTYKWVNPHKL
# [3] = molecular target: T1, G6PD; assay: 2H transfer from 1-2H-glucose to NADPH active hydride and C16:0 in HCT116 cells; type: cell-based; parameters: endogenous in cells; host or cells: HCT116; details: HCT116 cells
# From the text: Direct Monitoring of NADPH Produced by the G6PD Reaction. […] NADPH production is compartmentalized, and occurs through reduction of its redox partner NADP^+. G6PD is one of the main enzymes that generates NADPH, and catalyzes the transfer of electrons (in the form of hydride) from glucose-6-phosphate to NADP^+. By installing a deuterium at the “one” position of glucose (1-^2H-glucose), the transfer of that deuterium to the active hydride of NADPH via glucose-6-phosphate can be specifically monitored. Also, a major use of cytosolic NADPH is fat synthesis. Transfer of ^2H from glucose via NADPH into free palmitate (C16:0) requires two NADPH per two-carbon unit addition during its synthesis.
# Next, G6PD mediated hydride transfer to NADPH was directly monitored. Specifically, transfer of deuterium from 1-^2H-glucose, via glucose-6-phosphate, to the NADPH’s active hydride was monitored (FIG. 1B). […] The impacted step was G6PD, as no change in substrate (G6P) labeling was observed (FIG. 1E). A major use of cytosolic NADPH is fat synthesis. Transfer of ^2H from glucose via NADPH into palmitate (C16:0), which requires two NADPH per 2-carbon unit addition during its synthesis, was quantified (FIG. 1B).
# For all experiments involving stable isotope tracers (e.g., 1-^2H-glucose), the isotope tracer nutrient was substituted for unlabeled nutrient at the same concentration normally found in the base media for a given cell type (e.g., DMEM for HCT116, RPMI for T cells, etc.). In addition, dialyzed FBS was used as a supplement in place of FBS.
# Cytosolic NADPH sources were traced, and redox active hydride labeling was calculated, using a previously described strategy. 1-^2H-glucose (which directly traces G6PD) or 3-^2H-glucose (which directly traces PGD) were used for tracing oxPPP contribution to NADPH; 4-^2H-glucose for ME1; [2,3,3,4,4-^2H5]-glutamine, for both ME1 and IDH1; and D2O, to account for solvent exchange.
# For analysis of intracellular metabolites by LC-MS, adherent cell lines were plated and grown to 80% confluency in 6-well plates. At the start of an experiment, the appropriate media was added to cells, which included isotope tracers and/or chemical inhibitors as described. Cells were incubated at 37° C. at 5% CO2 for 2 hours (unless otherwise noted). For all experiments involving small molecule agents, DMSO concentrations were <0.2%. After 2 hours, media was removed by aspiration and metabolome extraction was performed (without any wash steps) by the addition of 800 µL of ice cold solvent (40:40:20 acetonitrile:methanol:water + 0.5% formic acid). After a 1-minute incubation on ice, the extract was neutralized by the addition of NH4HCO3 (15% w/v). The samples were incubated at -20° C. for approximately 30 minutes, at which point the wells were scraped and the extract transferred to Eppendorf tubes and centrifuged (15 minutes, 16000 rpm, 4° C.). The resulting supernatant was frozen on dry ice and kept at -80° C. until LC-MS analysis.
# Target sequence in this assay (P11413 whole entry): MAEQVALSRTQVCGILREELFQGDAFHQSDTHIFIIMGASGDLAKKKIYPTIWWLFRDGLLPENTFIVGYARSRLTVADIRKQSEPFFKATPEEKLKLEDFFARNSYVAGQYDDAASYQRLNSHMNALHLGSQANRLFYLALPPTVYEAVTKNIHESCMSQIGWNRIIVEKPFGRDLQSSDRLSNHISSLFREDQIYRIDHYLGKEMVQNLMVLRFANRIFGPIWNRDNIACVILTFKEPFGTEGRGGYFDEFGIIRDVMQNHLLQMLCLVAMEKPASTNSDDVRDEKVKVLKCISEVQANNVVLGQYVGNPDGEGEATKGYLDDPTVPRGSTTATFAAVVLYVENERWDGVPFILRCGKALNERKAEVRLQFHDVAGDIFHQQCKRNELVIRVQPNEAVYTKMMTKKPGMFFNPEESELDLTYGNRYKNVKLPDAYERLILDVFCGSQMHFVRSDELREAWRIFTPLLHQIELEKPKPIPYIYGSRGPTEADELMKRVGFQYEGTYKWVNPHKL
# [4] = test system: CD8+ and CD4+ T cells; assay: Intracellular ROS (CellROX green); type: cell-based, mouse; details: two hours
# Protocol: For measuring intracellular ROS levels, cells were incubated for 2 hours in the presence of increasing concentrations of G6PDi-1 and then stained for ROS and viability using CellROX Green Flow Cytometry Assay Kit following manufacturer instructions. In some experiments, n-acetyl cysteine (1 mM), galactose oxidase (0.045 U/mL) + galactose (500 µM), or potassium superoxide (0.5 µg/mL) were added to the culture media at the same time the drug and/or PMA and ionomycin were added. All flow cytometry was analyzed with an LSR II (BDbiosciences) using standard filter sets and FCS express 6 flow cytometry software (De Novo Software).
# [5] = test system: human neutrophils; assay: Neutrophil oxidative burst assay (human); type: cell-based; details: PMA, 50 µM
# Protocol: Human neutrophils were isolated from 8 ml of blood collected from healthy donors following the protocol approved by the University of Wisconsin Institutional Review Board (Protocol No. 2019-1031-CP001). Neutrophils were purified using the MACSxpress Whole Blood Neutrophil Isolation Kit (Miltenyi Biotec 130-104-434) followed by erythrocyte depletion (Miltenyi Biotec 130-098-196) according to the manufacturer’s instructions.
# Suspended neutrophils were plated in culture wells pre-coated with CELL-TAK™ (Corning), spun at 200 × g for 1 minute with minimal acceleration/deceleration, and then incubated for 1 hour at 37° C. Murine neutrophils were plated at 2×10^5 cells/well in RPMI 1640 media without sodium bicarbonate. Human neutrophils were plated at 5×10^4 cells/well in RPMI 1640 media supplemented with 0.1% human serum albumin. Inhibitor (G6PDi-1, 50 µM) or vehicle control were added just prior to starting the assay. Mouse neutrophils were also treated with rotenone (0.5 µM, BioVision) + antimycin A (0.5 µM, BioVision) at t = 20 minutes. Oxidative burst was stimulated with PMA (100 nM, Cayman Chemical); oxygen consumption rate was measured using the XF-96e extracellular flux analyzer (Seahorse Bioscience).
smiles,measurement,setting,value
"N#Cc1cc(Nc2ncc3c(n2)CCCCC3=O)cs1 [Compound 2, 4-([5-oxo-6H,7H,8H,9H-cyclohepta[d]pyrimidin-2-yl]amino)thiophene-2-carbonitrile]",absolute oxPPP flux,[1],blocked
same,mode of binding to G6PD,"[2]; competition assays against both substrates, in vitro dilution experiments",non-competitively and reversibly
same,IC50,"[2]; read-out: IC50 (half-maximal inhibitory constant) against human G6PD, coupled enzymatic assay, recombinant human enzyme",0.07 µM
same,2H transfer from 1-2H-glucose to downstream product C16:0,[3]; dose-response,dose-dependent decrease
same,IC50,"[3]; read-out: IC50, decrease in 2H transfer from 1-2H-glucose to NADPH's active hydride",~31 µM
same,reactive oxygen species,[4],elevated reactive oxygen species
same,oxidative burst (oxygen consumption rate),[5],decreased oxidative burst
